Assay results reported in US20230346670A1, “Prebiotic Oral Care Compositions and Methods” (Colgate-Palmolive Company, priority 2020, published 2023).
Where “and” joins values, the source holds several entries; their conditions need not be identical. Equal values may be shown once. Marks after values point to notes of the source that are not given here.

Tests used:
Format in all cases: cell-based
[1] = test system: multi-species biofilms; assay: Organic acid levels in supernatant of multi-species biofilms (ion chromatography); conditions: >0 production, <0 consumption, n = 3
Procedure, shortened: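 Biofilms grown 24 h on calcium-deficient hydroxyapatite disks (Amsterdam Active Adhesion model, 37° C., microaerophilic), then rinsed in substrate solution 3 min, three times daily for 3 days; PBS pH 5.7 without substrate as negative control. Organic acids in filter-sterilized supernatant quantified by ion chromatography.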

[2] = test system: human oral keratinocytes (HOK-18A); assay: Inflammatory mediator gene expression in keratinocytes exposed to substrate-treated biofilms (SYBR RT-qPCR); conditions: relative to control, n = 3
Procedure, shortened: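 HOK-18A keratinocytes were exposed to multi-species biofilms treated with substrates dissolved in PBS at 1 M or 1% (w/v). Inflammatory mediator expression was measured by SYBR RT-qPCR against β-actin, with fold change versus control by 2^-ΔΔCt, reported as geometric mean (n = 3).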

[3] = test system: P. intermedia virulence genes; assay: Virulence gene expression in multi-species biofilm (SYBR RT-qPCR); conditions: relative to control = 1
Procedure, shortened: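 Multi-species biofilms grown 24 h on CAD-HA disks (37° C., microaerophilic), then rinsed 3×/day for 3 min over 3 days with substrate at 1 M or 1% (w/v) in PBS; PBS pH 5.7 as control. Expression of 33 genes by SYBR RT-qPCR, normalized to housekeeping genes; fold change by 2^-ΔΔCt, geometric mean (95% C.I.), n = 3.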

[4] = test system: F. nucleatum virulence genes; assay: as above; conditions: for fold change in ABC transp. perm. (ABC transporter permease) expression, geometric mean (95% C.I.) / fold change in EF-G expression, geometric mean (95% C.I.) / fold change in but. -coA transf. (butyrate-acetoacetate CoA-transferase) expression, geometric mean (95% C.I.) / fold change in hemin receptor expression, geometric mean (95% C.I.) / fold change in hemolysin expression, geometric mean (95% C.I.) / fold change in ompA expression, geometric mean (95% C.I.) / fold change in transposase expression, geometric mean (95% C.I.): relative to control = 1, 2^-ΔΔCt, n = 3
Procedure, shortened: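 Multi-species biofilms on CAD-HA disks (Amsterdam Active Adhesion model) established 24 h at 37° C. under microaerophilic conditions, then rinsed 3 min three times daily for 3 days with substrate (1 M or 1% (w/v) in PBS); PBS pH 5.7 control. 33 virulence genes from 4 periodontal pathogens quantified by SYBR RT-qPCR, housekeeping-normalized; fold change by 2^-ΔΔCt, geometric mean (n = 3).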

[5] = HOK-18A exposed to biofilms treated with substrate 1% (w/v)
[6] = HOK-18A exposed to biofilms treated with substrate 1 M
[7] = lower part of Table 6d, head prints 1 M (lower part 1%(w/v))
[8] = upper part of Table 6d, substrate 1 M, n = 3

CC(=O)N[C@H]1C(O)O[C@H](CO)[C@@H](O)[C@@H]1O (stereo partly drawn) [NADG, N-acetyl-D-glucosamine]
acetate level in biofilm supernatant, mean ± SD ([1]; substrate 1% (w/v)): 379 ± 10 mg/L | butyrate level in biofilm supernatant, mean ± SD ([1]; substrate 1% (w/v)): 2238 ± 59 mg/L | formate level in biofilm supernatant, mean ± SD ([1]; substrate 1% (w/v)): 4315 ± 198 mg/L | lactate level in biofilm supernatant, mean ± SD ([1]; substrate 1% (w/v)): -125 ± 0 mg/L | propionate level in biofilm supernatant, mean ± SD ([1]; substrate 1% (w/v)): 2205 ± 89 mg/L | acetate level in biofilm supernatant, mean ± SD ([1]; substrate 1 M): 3815 ± 77 mg/L | butyrate level in biofilm supernatant, mean ± SD ([1]; substrate 1 M): 1255±51 mg/L and 1255 ± 51^∗ mg/L | formate level in biofilm supernatant, mean ± SD ([1]; substrate 1 M): 352 ± 18 mg/L | lactate level in biofilm supernatant, mean ± SD ([1]; substrate 1 M): -125 ± 0 mg/L | propionate level in biofilm supernatant, mean ± SD ([1]; substrate 1 M): 2750±40 mg/L and 2750 ± 40^∗ mg/L | fold change in IL-1β gene expression, geometric mean (C.I.) [2, 5]: 0.71 (0.38-1.33)^∗ fold | fold change in IL-6 gene expression, geometric mean (C.I.) [2, 5]: 0.73 (0.58-0.93)^∗ fold | fold change in IL-8 gene expression, geometric mean (C.I.) [2, 5]: 1.00 (0.78-1.27) fold | fold change in MMP-8 gene expression, geometric mean (C.I.) [2, 5]: 0.52 (0.17-1.6)^∗ fold | fold change in TNF-α gene expression, geometric mean (C.I.) [2, 5]: 0.71 (0.28-1.35)^∗ fold | fold change in IL-1β gene expression, geometric mean (C.I.) [2, 6]: 0.75 (0.55-1.02) fold | fold change in IL-6 gene expression, geometric mean (C.I.) [2, 6]: 0.57 (0.46-0.71) fold | fold change in IL-8 gene expression, geometric mean (C.I.) [2, 6]: 0.14 (0.06-0.36)^∗ fold | fold change in MMP-8 gene expression, geometric mean (C.I.) [2, 6]: 1.28 (0.79-2.08) fold | fold change in TNF-α gene expression, geometric mean (C.I.) [2, 6]: 0.89 (0.59-1.34) fold | fold change in DnaJ expression, geometric mean (95% C.I.) [3, 7]: 0.70 (0.50-0.99) fold | fold change in DnaK expression, geometric mean (95% C.I.) [3, 7]: 0.77 (0.34-1.77) fold | fold change in ECF expression, geometric mean (95% C.I.) [3, 7]: 0.48 (0.11-2.02) fold | fold change in GroES expression, geometric mean (95% C.I.) [3, 7]: 0.75 (0.49-1.14) fold | fold change in HtpG expression, geometric mean (95% C.I.) [3, 7]: 0.46 (0.22-0.94)* fold | fold change in KpsD expression, geometric mean (95% C.I.) [3, 7]: 0.78 (0.37-1.62) fold | fold change in adpc expression, geometric mean (95% C.I.) [3, 7]: 0.67 (0.64-0.69) fold | fold change in clpB expression, geometric mean (95% C.I.) [3, 7]: 1.06 (0.58-1.96) fold | fold change in inpA expression, geometric mean (95% C.I.) [3, 7]: 0.53 (0.24-1.17)* fold | fold change in phg expression, geometric mean (95% C.I.) [3, 7]: 0.69 (0.47-1.00) fold | fold change in DnaJ expression, geometric mean (95% C.I.) [3, 8]: 0.64 (0.35-1.16) fold | fold change in DnaK expression, geometric mean (95% C.I.) [3, 8]: 2.34 (1.23-4.43)* fold | fold change in ECF expression, geometric mean (95% C.I.) [3, 8]: 20.32 (4.81-85.88)^∗ fold | fold change in GroES expression, geometric mean (95% C.I.) [3, 8]: 1.86 (1.38-2.50) fold | fold change in HtpG expression, geometric mean (95% C.I.) [3, 8]: 3.40 (2.27-5.08)* fold | fold change in KpsD expression, geometric mean (95% C.I.) [3, 8]: 1.72 (0.62-4.72) fold | fold change in adpc expression, geometric mean (95% C.I.) [3, 8]: 2.65 (1.25-5.62)* fold | fold change in clpB expression, geometric mean (95% C.I.) [3, 8]: 2.03 (0.94-4.41) fold | fold change in inpA expression, geometric mean (95% C.I.) [3, 8]: 4.52 (4.14-4.94)^∗ fold | fold change in phg expression, geometric mean (95% C.I.) [3, 8]: 0.57 (0.38-0.85)* fold | fold change in ABC transp. perm. (ABC transporter permease) expression, geometric mean (95% C.I.) ([4]; substrate 1% (w/v)): 0.33 (0.12-0.87)^∗ fold | fold change in EF-G expression, geometric mean (95% C.I.) ([4]; substrate 1% (w/v)): 0.10 (0.02-0.45)^∗ fold | fold change in but. -coA transf. (butyrate-acetoacetate CoA-transferase) expression, geometric mean (95% C.I.) ([4]; substrate 1% (w/v)): 0.21 (0.11-0.39)^∗ fold | fold change in hemin receptor expression, geometric mean (95% C.I.) ([4]; substrate 1% (w/v)): 0.19 (0.02-1.67)^∗ fold | fold change in hemolysin expression, geometric mean (95% C.I.) ([4]; substrate 1% (w/v)): 0.79 (0.30-2.04) fold | fold change in ompA expression, geometric mean (95% C.I.) ([4]; substrate 1% (w/v)): 0.74 (0.18-2.98) fold | fold change in transposase expression, geometric mean (95% C.I.) ([4]; substrate 1% (w/v)): 0.98 (0.18-5.39) fold | upregulation of F. nucleatum virulence gene expression, range over genes ([4]; substrate 1 M): more limited and only significant for 2 genes | fold change in ABC transp. perm. (ABC transporter permease) expression, geometric mean (95% C.I.) ([4]; substrate 1 M): 3.33 (2.53-4.39)^∗ fold | fold change in EF-G expression, geometric mean (95% C.I.) ([4]; substrate 1 M): 1.45 (0.93-2.26) fold | fold change in but. -coA transf. (butyrate-acetoacetate CoA-transferase) expression, geometric mean (95% C.I.) ([4]; substrate 1 M): 1.21 (0.99-1.49) fold | fold change in hemin receptor expression, geometric mean (95% C.I.) ([4]; substrate 1 M): 3.26 (2.24-4.76)^∗ fold | fold change in hemolysin expression, geometric mean (95% C.I.) ([4]; substrate 1 M): 1.90 (1.29-2.79) fold | fold change in ompA expression, geometric mean (95% C.I.) ([4]; substrate 1 M): 1.33 (0.78-2.25) fold | fold change in transposase expression, geometric mean (95% C.I.) ([4]; substrate 1 M): 1.27 (0.68-2.37) fold
